Results published in US7435747B2, “Guanidine and amidine derivatives as factor Xa inhibitors” (Sanofi-Aventis Deutschland GmbH, priority 2000, dated 2008).

These compounds were tested against T1, human factor Xa (Homo sapiens, UniProt P00742) (assay: Factor Xa chromogenic assay (substrate S-2765)). Conditions: Ki calculated from IC50 corrected for substrate competition; 25° C., 0.5 nM enzyme, 140 μM substrate S-2765; read-out: Ki(FXa), inhibition constant for inhibition of factor Xa.
T1 construct: 25 μl human factor Xa (Enzyme Research Laboratories, Inc; South Bend, Ind.); purchased Enzyme Research Laboratories, Inc; South Bend, Ind
T1 sequence (P00742 235-488 limits assumed): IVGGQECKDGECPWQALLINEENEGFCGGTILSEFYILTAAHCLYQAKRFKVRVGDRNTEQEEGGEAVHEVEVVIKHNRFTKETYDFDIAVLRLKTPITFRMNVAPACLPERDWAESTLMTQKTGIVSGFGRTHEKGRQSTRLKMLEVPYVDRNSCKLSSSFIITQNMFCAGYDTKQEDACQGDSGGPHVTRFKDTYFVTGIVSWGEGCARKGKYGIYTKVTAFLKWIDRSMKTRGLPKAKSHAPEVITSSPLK
T1 sequence (P00742 41-179 partner limits assumed): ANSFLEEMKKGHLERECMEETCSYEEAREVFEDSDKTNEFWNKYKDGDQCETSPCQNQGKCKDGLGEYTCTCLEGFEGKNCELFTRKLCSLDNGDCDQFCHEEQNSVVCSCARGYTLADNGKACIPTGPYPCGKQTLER
Format: biochemical
Procedure: Purified enzymes are used in chromogenic assays.
The IC50 was determined by combining in appropriate wells of a Costar half-area microtiter plate 25 μl human factor Xa (Enzyme Research Laboratories, Inc.; South Bend, Ind.) in TBS-PEG; 40 μl 10% (v/v) DMSO in TBS-PEG (uninhibited control) or various concentrations of the compound to be tested diluted in 10% (v/v) DMSO in TBS-PEG; and substrate S-2765 (N(α)-benzyloxycarbonyl-D-Arg-Gly-L-Arg-p-nitroanilide; Kabi Pharmacia, Inc.; Franklin, Ohio) in TBS-PEG.
The assay was performed by pre-incubating the compound of formula I plus enzyme for 10 min. Then the assay was initiated by adding substrate to obtain a final volume of 100 μl. The initial velocity of chromogenic substrate hydrolysis was measured by the change in absorbance at 405 nm using a Bio-tek Instruments kinetic plate reader (Ceres UV900HDi) at 25° C. during the linear portion of the time course (usually 1.5 min after addition of substrate). The enzyme concentration was 0.5 nM and substrate concentration was 140 μM.

Row | Ki [nM] | Compound
1 | 140 | CC(=N)N1CCC(CNC(=O)c2ccc(C)c(OCCc3ccc(Cl)cc3Cl)c2)CC1 [Example 12, 3-[2-(2,4-Dichloro-phenyl)-ethoxy]-N-[1-(10-imino-ethyl)-piperidin-4-ylmethyl]-4-methyl-benzamide; compound with trifluoro-acetic acid]
2 | 173 | Cc1ccc(C(=O)NCC2CCN(C(=N)N)CC2)cc1OCCc1ccc(Cl)cc1Cl [Example 13, N-(1-Carbamimidoyl-piperidin-4-ylmethyl)-3-[2-(2,4-dichloro-phenyl)-ethoxy]-4-methyl-benzamide; compound with trifluoro-acetic acid]

Same assay, conditions: read-out: Ki(FXa), inhibition constant for inhibition of factor Xa

Row | Compound | Ki [nM]
3 | N=C(N)N1CCC(CNC(=O)c2cc(O)c(Br)c(OCCc3ccc(Cl)cc3Cl)c2)CC1 [Example 2, 4-Bromo-N-(1-carbamimidoyl-piperidin-4-ylmethyl)-3-[2-(2,4-dichloro-phenyl)-ethoxy]-5-hydroxy-benzamide] | 13.7
4 | Cc1c(O)cc(C(=O)NCC2CCN(C(=N)N)CC2)cc1OCCc1ccc(Cl)cc1Cl [Example 3, N-(1-Carbamimidoyl-piperidin-4-ylmethyl)-3-[2-(2,4-dichloro-phenyl)-ethoxy]-5-hydroxy-4-methyl-benzamide] | 58.5

Next, values leading:

Row | Ki [nM] | Compound
5 | 2120 | COC(=O)[C@@H](NC(=O)c1cc(O)cc(OCCc2ccc(Cl)cc2Cl)c1)C1CCN(C(=N)N)CC1 [Example 1, (S)-(1-Carbamimidoyl-piperidin-4-yl)-{3-[2-(2,4-dichloro-phenyl)-ethoxy]-5-hydroxy-benzoylamino}-acetic acid methyl ester]
6 | 2280 | COC(=O)[C@H](CC1CCN(C(=N)N)CC1)NC(=O)c1cc(O)c(C)c(OCCCc2ccc(Cl)cc2Cl)c1 [Example 6]
7 | 464 | N=C(N)N1CCC(CNC(=O)c2cc(O)cc(OCCc3ccc(Cl)cc3Cl)c2)CC1 [Example 4]
